How the values were obtained:
Experiment in all cases: Bliss excess, mean over the matrix (fraction); higher = more synergy
[1] = system: TGBC11TKB (Gastric Carcinoma)
Summary of the method: (§1)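 Cell lines in DMEM/F12 or RPMI with 10% FBS were plated in 1536-well plates, held 24 hours at 37°C, 5% CO2, then given two-drug dose matrices for 72 hours (DMSO typically 0.2%). Viability was read by CellTiter-Glo 2.0 luminescence and scaled as inhibition from 0 (vehicle wells) to 1 (blank wells). Combination Emax is the second-highest inhibition in the matrix; Bliss excess is observed combination effect minus expected EA + EB − EA·EB, EA and EB being single-agent effects.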

[2] = system: HSC-2 (Oral Cavity Carcinoma)
Summary of the method: as §1

[3] = system: RPMI-7951 (Melanoma)
Summary of the method: as §1

[4] = system: OCUM-1 (Gastric Carcinoma)
Summary of the method: as §1

[5] = system: EMC-BAC-2 (Non-Small Cell Lung Carcinoma)
Summary of the method: as §1

[6] = system: NB7 (Neuroblastoma)
Summary of the method: as §1

[7] = system: OVISE (Ovarian Carcinoma)
Summary of the method: as §1

[8] = system: SCC-9 (Oral Cavity Carcinoma)
Summary of the method: as §1

[9] = system: NCI-H2405 (Lung Adenocarcinoma)
Summary of the method: as §1

[10] = system: NCI-H2347 (Lung Adenocarcinoma)
Summary of the method: as §1

[11] = system: BT-20 (Breast Carcinoma)
Summary of the method: as §1

[12] = system: KLE (Endometrial Carcinoma)
Summary of the method: as §1

[13] = system: OCUB-M (Breast Carcinoma)
Summary of the method: as §1

[14] = system: LOU-NH91 (Squamous Cell Lung Carcinoma)
Summary of the method: as §1

[15] = system: PF-382 (T-Lymphoblastic Leukemia)
Summary of the method: as §1

[16] = system: NH-12 (Neuroblastoma)
Summary of the method: as §1

[17] = system: NCI-H513 (Other Solid Carcinomas)
Summary of the method: as §1

[18] = system: JHH-7 (Hepatocellular Carcinoma)
Summary of the method: as §1

[19] = system: DG-75 (Burkitt's Lymphoma)
Summary of the method: as §1

[20] = system: HuP-T3 (Pancreatic Carcinoma)
Summary of the method: as §1

| Compound | Bliss excess [1] | Bliss excess [2] | Bliss excess [3] | Bliss excess [4] | Bliss excess [5] | Bliss excess [6] | Bliss excess [7] | Bliss excess [8] | Bliss excess [9] | Bliss excess [10] | Bliss excess [11] | Bliss excess [12] | Bliss excess [13] | Bliss excess [14] | Bliss excess [15] | Bliss excess [16] | Bliss excess [17] | Bliss excess [18] | Bliss excess [19] | Bliss excess [20] |
| --- | --- | --- | --- | --- | --- | --- | --- | --- | --- | --- | --- | --- | --- | --- | --- | --- | --- | --- | --- | --- |
| Cc1c2c(nn1C)CSCc1cc(n(C)n1)CSc1cc(c3ccccc3c1)OCCCc1c(C(=O)O)n(C)c3c-2c(Cl)ccc13 [AZD5991] + C[C@@H](Nc1cc(F)cc(F)c1)c1cc(C(=O)N(C)C)cc2c(=O)cc(N3CCOCC3)oc12 [AZD8186] (first compound max 1 µM, 7x7, partner max 3 µM) | 0.0005 | 0.0042 | 0.0878 | -0.0302 | -0.0336 | 0.0187 | 0.0069 | -0.0058 | -0.0114 | 0.0251 | 0.0382 | 0.0077 | -0.0067 | -0.0542 | 0.005 | 0.0311 | 0.0221 | -0.0439 | 0.0008 | -0.0622 |
| Cc1c2c(nn1C)CSCc1cc(n(C)n1)CSc1cc(c3ccccc3c1)OCCCc1c(C(=O)O)n(C)c3c-2c(Cl)ccc13 [AZD5991] + CC1(C)CCC(CN2CCN(c3ccc(C(=O)NS(=O)(=O)c4ccc(NCC5CCOCC5)c([N+](=O)[O-])c4)c(Oc4cnc5[nH]ccc5c4)c3)CC2)=C(c2ccc(Cl)cc2)C1 [Venetoclax] (first compound max 1 µM, 7x7, partner max 1 µM) | 0.0364 | 0.0693 | -0.0568 | -0.0182 | -0.0512 | -0.0612 | 0.0031 | -0.0278 | -0.0346 | -0.0188 | 0.0755 | -0.0505 | 0.006 | -0.0589 | 0.0223 | 0.139 | -0.0072 | 0.0183 | -0.0246 | -0.0358 |
| CN(CCO)CC[C@H](CSc1ccccc1)Nc1ccc(S(=O)(=O)NC(=O)c2ccc(N3CCC([C@@H](O)c4ccccc4-c4ccc(Cl)cc4)CC3)cc2)cc1S(=O)(=O)C(F)(F)F [AZD4320] + Cc1cc2ncnn2cc1Nc1ncc2c(n1)n(C1CCOCC1)c(=O)n2C [AZD7648] (first compound max 1 µM, 7x7, partner max 10 µM) | 0.0075 | 0.0257 | -0.0109 | -0.0462 | -0.0482 | -0.0286 | -0.0033 | -0.0121 | -0.0351 | -0.0312 | 0.0391 | -0.0116 | 0.0104 | -0.012 | 0.0269 | -0.0248 | -0.0438 | -0.0253 | 0.0021 | -0.0362 |
| COc1cccc(OCCCN)c1-c1cc(Nc2cnc(C#N)cn2)n[nH]1 [Prexasertib] + Cc1cc2ncnn2cc1Nc1ncc2c(n1)n(C1CCOCC1)c(=O)n2C [AZD7648] (first compound max 1 µM, 7x7, partner max 10 µM) | -0.0148 | -0.0403 | 0.0049 | 0.0005 | -0.019 | -0.0195 | -0.0333 | 0.0092 | -0.0386 | -0.0552 | -0.0536 | 0.0213 | -0.0611 | 0.007 | -0.0131 | -0.0133 | 0.0134 | -0.0143 | -0.055 | 0.016 |
| CC1(C)CCC(CN2CCN(c3ccc(C(=O)NS(=O)(=O)c4ccc(NCC5CCOCC5)c([N+](=O)[O-])c4)c(Oc4cnc5[nH]ccc5c4)c3)CC2)=C(c2ccc(Cl)cc2)C1 [Venetoclax] + C[C@@H]1COCCN1C2=NC(=NC(=C2)C3(CC3)[S@](=N)(=O)C)C4=C5C=CNC5=NC=C4 [AZD6738] (first compound max 1 µM, 7x7, partner max 10 µM) | -0.0273 | 0.0275 | -0.0474 | -0.0242 | -0.0196 | -0.0342 | -0.0658 | -0.0433 | -0.06 | -0.0454 | -0.0511 | -0.0538 | -0.0107 | -0.0023 | 0.0366 | -0.0647 | -0.0111 | -0.0318 | -0.0021 | -0.0201 |
| CCN(CCO)CCCOc1ccc2c(Nc3cc(CC(=O)Nc4cccc(F)c4)[nH]n3)ncnc2c1 [AZD2811] + C=CCn1c(=O)c2cnc(Nc3ccc(N4CCN(C)CC4)cc3)nc2n1-c1cccc(C(C)(C)O)n1 [AZD1775] (first compound max 1 µM, partner max 1 µM) | 0.0257 | 0.0771 | 0.0106 | -0.0127 | -0.0112 | 0.0497 | -0.0332 | -0.0179 | -0.021 | -0.0475 | -0.0073 | -0.0513 | 0.0312 | -0.0257 | -0.0432 | -0.0012 | -0.0195 | -0.0186 | 0.086 | -0.0366 |
| COc1cccc(OCCCN)c1-c1cc(Nc2cnc(C#N)cn2)n[nH]1 [Prexasertib] + C[C@@H]1COCCN1C2=NC(=NC(=C2)C3(CC3)[S@](=N)(=O)C)C4=C5C=CNC5=NC=C4 [AZD6738] (first compound max 1 µM, 7x7, partner max 10 µM) | -0.0137 | 0.0649 | -0.0372 | -0.0698 | 0.0076 | -0.0018 | 0.0341 | 0.0803 | 0.0046 | -0.081 | -0.0218 | -0.0393 | 0.0421 | 0.0295 | -0.0558 | -0.0392 | -0.0104 | 0.0381 | -0.0381 | 0.0032 |
| COc1nnc2ccc(N3CCC(c4ccc(OCCN5CCN(C)C(=O)[C@H]5C)cc4)CC3)nn12 [AZD5153] + CC1(C)CCC(CN2CCN(c3ccc(C(=O)NS(=O)(=O)c4ccc(NCC5CCOCC5)c([N+](=O)[O-])c4)c(Oc4cnc5[nH]ccc5c4)c3)CC2)=C(c2ccc(Cl)cc2)C1 [Venetoclax] (first compound max 1 µM, 7x7, partner max 1 µM) | -0.0783 | -0.0196 | -0.0292 | -0.0456 | -0.101 | -0.0287 | -0.013 | -0.0478 | -0.0484 | -0.11 | -0.071 | -0.0384 | -0.0299 | -0.0758 | -0.0551 | -0.0333 | -0.086 | -0.0676 | -0.063 | -0.102 |
| CC1(C)CCC(CN2CCN(c3ccc(C(=O)NS(=O)(=O)c4ccc(NCC5CCOCC5)c([N+](=O)[O-])c4)c(Oc4cnc5[nH]ccc5c4)c3)CC2)=C(c2ccc(Cl)cc2)C1 [Venetoclax] + Cc1cc2ncnn2cc1Nc1ncc2c(n1)n(C1CCOCC1)c(=O)n2C [AZD7648] (first compound max 1 µM, 7x7, partner max 10 µM) | -0.0592 | -0.0177 | -0.0226 | -0.0144 | -0.0596 | -0.018 | -0.0464 | -0.0211 | -0.0492 | -0.0665 | -0.0229 | -0.0432 | -0.0149 | -0.0202 | -0.0134 | -0.0072 | -0.0321 | -0.0446 | -0.0157 | -0.0331 |
| CN(CCO)CC[C@H](CSc1ccccc1)Nc1ccc(S(=O)(=O)NC(=O)c2ccc(N3CCC([C@@H](O)c4ccccc4-c4ccc(Cl)cc4)CC3)cc2)cc1S(=O)(=O)C(F)(F)F [AZD4320] + C[C@@H](Nc1cc(F)cc(F)c1)c1cc(C(=O)N(C)C)cc2c(=O)cc(N3CCOCC3)oc12 [AZD8186] (first compound max 1 µM, 7x7, partner max 3 µM) | -0.0032 | -0.0401 | 0.0019 | -0.0284 | 0.0472 | 0.0133 | -0.0322 | -0.0094 | -0.0239 | 0.126 | 0.0586 | 0.0304 | 0.0137 | -0.0046 | 0.0836 | -0.0224 | 0.0113 | 0.0257 | 0.0548 | 0.038 |
| CCN(CCO)CCCOc1ccc2c(Nc3cc(CC(=O)Nc4cccc(F)c4)[nH]n3)ncnc2c1 [AZD2811] + O=C(c1cc(Cc2n[nH]c(=O)c3ccccc23)ccc1F)N1CCN(C(=O)C2CC2)CC1 [Olaparib] (first compound max 1 µM, 7x7, partner max 10 µM) | 0.0524 | 0.0524 | 0.0463 | 0.0383 | 0.0112 | 0.0598 | -0.0255 | -0.0188 | -0.0075 | -0.0303 | 0.0358 | -0.282 | -0.0413 | 0.0461 | -0.0335 | 0.0109 | -0.0203 | 0.0118 | 0.0063 | -0.0195 |
| COc1nnc2ccc(N3CCC(c4ccc(OCCN5CCN(C)C(=O)[C@H]5C)cc4)CC3)nn12 [AZD5153] + Cc1c2c(nn1C)CSCc1cc(n(C)n1)CSc1cc(c3ccccc3c1)OCCCc1c(C(=O)O)n(C)c3c-2c(Cl)ccc13 [AZD5991] (first compound max 1 µM, 7x7, partner max 1 µM) | -0.0666 | -0.0731 | -0.0575 | 0.0024 | -0.0589 | 0.0105 | -0.039 | -0.0322 | 0.01 | -0.0198 | 0.0213 | -0.0228 | 0.0063 | -0.0449 | 0.0145 | -0.0206 | -0.0287 | -0.0306 | -0.0432 | 0.0051 |
| Cc1c2c(nn1C)CSCc1cc(n(C)n1)CSc1cc(c3ccccc3c1)OCCCc1c(C(=O)O)n(C)c3c-2c(Cl)ccc13 [AZD5991] + Cn1cnc2c(F)c(Nc3ccc(Br)cc3Cl)c(C(=O)NOCCO)cc21 [Selumetinib] (first compound max 1 µM, 7x7, partner max 3 µM) | 0.0592 | -0.0024 | -0.0072 | -0.0034 | 0.0081 | -0.0259 | -0.0588 | 0.0245 | 0.0595 | -0.0006 | 0.153 | -0.0374 | 0.0322 | -0.025 | 0.0006 | 0.0026 | -0.0255 | -0.0649 | -0.0023 | 0.032 |
| CN(CCO)CC[C@H](CSc1ccccc1)Nc1ccc(S(=O)(=O)NC(=O)c2ccc(N3CCC([C@@H](O)c4ccccc4-c4ccc(Cl)cc4)CC3)cc2)cc1S(=O)(=O)C(F)(F)F [AZD4320] + CCN(CCO)CCCOc1ccc2c(Nc3cc(CC(=O)Nc4cccc(F)c4)[nH]n3)ncnc2c1 [AZD2811] (first compound max 1 µM, 7x7, partner max 1 µM) | 0.0198 | 0.166 | 0.0295 | 0.0648 | -0.0251 | 0.0258 | -0.0008 | -0.0115 | -0.0333 | -0.0472 | 0.0212 | -0.0207 | 0.0283 | 0.0995 | 0.0518 | -0.049 | -0.0283 | -0.0085 | -0.0224 | -0.0384 |

From the supplement of paper PMC11061612
